Measured values taken from the Kinase Knowledgebase extract (Sharma et al. 2016).

Assays:
[1] = target: PIK3CA, P42336 [Wild Type]; assay: Inhibition of PIK3CA (Wild Type) Kinase Activity
PIK3CA = PIK3CA (UniProt P42336); assay: Inhibition of PIK3CA Kinase Activity
Sequence of PIK3CA (P42336 whole entry, looked up): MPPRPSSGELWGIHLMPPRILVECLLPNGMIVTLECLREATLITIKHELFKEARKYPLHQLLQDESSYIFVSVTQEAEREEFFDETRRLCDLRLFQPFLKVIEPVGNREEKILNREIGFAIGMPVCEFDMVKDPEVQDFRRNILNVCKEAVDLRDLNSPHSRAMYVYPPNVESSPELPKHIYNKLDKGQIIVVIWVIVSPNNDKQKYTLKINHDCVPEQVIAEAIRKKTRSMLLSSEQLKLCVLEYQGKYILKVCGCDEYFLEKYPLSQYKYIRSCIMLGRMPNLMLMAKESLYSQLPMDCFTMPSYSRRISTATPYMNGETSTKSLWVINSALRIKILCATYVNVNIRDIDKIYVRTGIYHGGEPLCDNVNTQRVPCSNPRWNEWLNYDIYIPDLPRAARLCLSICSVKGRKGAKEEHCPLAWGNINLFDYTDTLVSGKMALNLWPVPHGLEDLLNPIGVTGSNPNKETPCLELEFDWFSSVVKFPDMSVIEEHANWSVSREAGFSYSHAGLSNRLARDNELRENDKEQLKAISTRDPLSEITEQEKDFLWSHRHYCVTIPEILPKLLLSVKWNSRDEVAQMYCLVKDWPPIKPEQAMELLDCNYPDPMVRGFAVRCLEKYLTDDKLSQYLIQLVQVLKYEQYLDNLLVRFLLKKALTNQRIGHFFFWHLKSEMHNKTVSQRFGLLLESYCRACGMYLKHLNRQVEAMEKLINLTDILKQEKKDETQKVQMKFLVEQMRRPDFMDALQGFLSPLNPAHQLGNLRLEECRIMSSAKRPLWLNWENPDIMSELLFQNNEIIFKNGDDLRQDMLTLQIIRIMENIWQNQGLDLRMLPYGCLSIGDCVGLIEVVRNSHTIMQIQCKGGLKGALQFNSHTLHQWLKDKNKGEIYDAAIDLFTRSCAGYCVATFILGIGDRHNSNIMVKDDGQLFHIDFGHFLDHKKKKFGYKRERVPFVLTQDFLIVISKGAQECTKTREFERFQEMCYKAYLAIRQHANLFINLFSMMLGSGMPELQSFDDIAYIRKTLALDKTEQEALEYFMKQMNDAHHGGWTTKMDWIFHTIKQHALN

Sequence of PIK3CA, P42336 [Wild Type] (P42336 whole entry, looked up): as above

Row | SMILES | IC50 [1] | IC50 (PIK3CA)
1 | Cc1c(N2CCOCC2)oc2ccccc2c1=O | 33 µM | 40 µM
2 | CC(C)c1c(N2CCOCC2)oc2ccccc2c1=O | 51 µM | > 200 µM
3 | O=c1c(-c2ccccc2)c(N2CCOCC2)oc2ccccc12 | > 200 µM | > 200 µM
4 | O=c1c(Cc2ccccc2)c(N2CCOCC2)oc2ccccc12 | > 200 µM | > 200 µM

These reach a lower IC50 [1]. Values come first.

Row | IC50 [1] | IC50 (PIK3CA) | SMILES
5 | 31 µM | 68 µM | CCCc1c(N2CCOCC2)oc2ccccc2c1=O
6 | 28 µM | 4.4 µM | CCc1c(N2CCOCC2)oc2ccccc2c1=O
7 | 25 µM | 48 µM | CCCCc1c(N2CCOCC2)oc2ccccc2c1=O
8 | 2.6 µM | 15 µM | O=c1cc(N2CCOCC2)oc2ccccc12
